Test results taken from US12240867B2, “Arginase inhibitors and methods of use” (Merck Sharp & Dohme LLC, priority 2018, dated 2025).
Where two headings read alike, the source gives them in different places. Each block holds one molecule with its values, some of them ahead of it.

Experiments:
Arginase = target: T1, Arginase (Homo sapiens, UniProt P05089); assay: Arginase Thioornithine Generating Assay (TOGA); format: biochemical
T1 sequence (P05089 1-322): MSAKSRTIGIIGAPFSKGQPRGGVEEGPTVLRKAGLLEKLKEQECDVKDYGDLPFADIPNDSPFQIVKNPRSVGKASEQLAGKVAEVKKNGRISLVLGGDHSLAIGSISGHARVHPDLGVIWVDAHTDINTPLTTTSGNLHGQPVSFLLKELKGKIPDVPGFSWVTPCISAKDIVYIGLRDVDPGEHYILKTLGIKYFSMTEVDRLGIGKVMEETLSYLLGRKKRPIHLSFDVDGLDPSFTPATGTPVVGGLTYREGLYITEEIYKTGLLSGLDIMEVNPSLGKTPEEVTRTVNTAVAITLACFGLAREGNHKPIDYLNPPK
Procedure: Arginase Thioornithine Generating Assay (TOGA)
Compounds were serially diluted in ten 3-fold steps in DMSO starting from 10 mM DMSO stocks. Compound dilutions or DMSO alone were then dispensed from the dilution plate into a Greiner black 384-well assay plate (catalog #781086) using an Echo 555 acoustic liquid handler (Labcyte).
Arginase protein was recombinantly expressed in Escherichia coli. Purified protein was then diluted in assay buffer (50 mM Tris pH 7.5, 50 mM NaCl, 1 mM manganese chloride, 0.0500 bovine serum albumin to obtain a final Arginase concentration of 1.88 nM. Arginase solution ([…])) or buffer alone (20 μL) were dispensed to wells of the assay plate using a BioRAPTR liquid dispenser (Beckman Coulter). Assay plates containing compound and arginase enzyme were incubated at room temperature for 30 minutes. Afterwards, 5 µL of 2.5 mM thioarginine (Cayman Chemicals) in assay buffer were added to each well of the assay plate using a BioRAPTR liquid dispenser. Plates were incubated at room temperature for 60 minutes and reactions were quenched by addition of 15 μL of 200 uM 7-Diethylamine-3-(4-maleimidophenyl)-4-methyl coumarin (Sigma Chemical) in 70% ethanol. Plates were briefly shaken to mix and the fluorescence was measured in an Spectramax plate reader (Molecular Devices) with a 410 nm excitation wavelength and an 490 nm emission wavelength.
Potencies were calculated by […] least squares fit to the four parameter logistic IC50 equation.

[1] = tested on: corpus cavernosum of the diabetic man; conditions: ex vivo; cited from earlier work
live male rabbits = conditions: cited from earlier work
allergic asthma model = conditions: nebulizer treatment of guinea pigs; cited from earlier work
[2] = tested on: experimental autoimmune encephalomyelitis; conditions: experimental autoimmune encephalomyelitis animal model; cited from earlier work
penile corpus cavernosum = conditions: rabbit and human penile corpus cavernosum; cited from earlier work
live female rabbits = conditions: cited from earlier work
[3] = tested on: opossum internal anal sphincter muscle; conditions: cited from earlier work
[4] = Top Dose 10000 nM, read-out: Percent Inhibition at Top Dose
[5] = read-out: Percent Inhibition at Top Dose, Top Dose 10000 nM

SMILES: O=C(O)C12CNCC1(CCCB(O)O)CCN2 (racemic) [Example 6, racemic 3a-(3-boronopropyl)hexahydropyrrolo[3,4-b]pyrrole-6a(H)-carboxylic acid]
inhibition at 10 µM (Arginase; [4]): 91.9%

SMILES: CN1CC2(CCCB(O)O)CCNC2(C(=O)O)C1 (racemic) [Example 7, Racemic 3a-(3-boronopropyl)-5-methylhexahydropyrrolo[3,4-b]pyrrole-6a(1H)-carboxylic acid]
inhibition at 10 µM (Arginase; [4]): 85.1%

SMILES: N[C@@H](CCCCB(O)O)C(=O)O [ABH, (S)-2-amino-6-boronohexanoic acid]
nitric oxide biosynthesis [1]: restores nitric oxide biosynthesis
erectile response (live male rabbits): enhances the erectile response
airway hyperresponsiveness (allergic asthma model): prevents airway hyperresponsiveness
disease score [2]: improves the disease score
nitric oxide-dependent relaxation of corpus cavernosum tissue (penile corpus cavernosum): enhances the nitric oxide-dependent relaxation of this tissue
engorgement response in the genitalia (live female rabbits): enhances the engorgement response
relaxation of internal anal sphincter muscle [3]: relax this muscle

SMILES: C[C@H](N)C(=O)N1C[C@@]2(CCCB(O)O)CCN[C@@]2(C(=O)O)C1 [Example 1, (3aR,6aR)-5-(L-alanyl)-3a-(3-boronopropyl)hexahydropyrrolo[3,4-b]pyrrole-6a(H)-carboxylic acid]
inhibition at 10 µM (Arginase; [5]): 99.7%

SMILES: NCC(=O)N1C[C@@]2(CCCB(O)O)CCN[C@@]2(C(=O)O)C1 [Example 3, (3aR,6aR)-3a-(3-boronopropyl)-5-glycylhexahydropyrrolo[3,4-b]pyrrole-6a(H)-carboxylic acid]
inhibition at 10 µM (Arginase; [5]): 89.5%

SMILES: O=C(O)[C@]12CNC[C@@]1(CCCB(O)O)CCN2 [Example 4, (3aR,6aR)-3a-(3-boronopropyl)hexahydropyrrolo[3,4-b]pyrrole-6a(1H)-carboxylic acid]
inhibition at 10 µM (Arginase; [4]): 98.2%
IC50 (Arginase; recombinant arginase 1.88 nM, thioarginine substrate, fluorescence readout): 46 nM

SMILES: O=C(O)[C@@]12CNC[C@]1(CCCB(O)O)CCN2 [Example 5, (3aS,6aS)-3a-(3-boronopropyl)hexahydropyrrolo[3,4-b]pyrrole-6a(H)-carboxylic acid]
inhibition at 10 µM (Arginase; [4]): 93%

inhibition at 10 µM (Arginase; [4]): 99%
SMILES: CC(C)[C@H](N)C(=O)N1C[C@@]2(CCCB(O)O)CCN[C@@]2(C(=O)O)C1 [Example 8, (3aR,6aR)-5-(L-valyl)-3a-(3-boronopropyl)hexahydropyrrolo[3,4-b]pyrrole-6a(H)-carboxylic acid]

SMILES: N[C@@H](CO)C(=O)N1C[C@@]2(CCCB(O)O)CCN[C@@]2(C(=O)O)C1 [Example 9, (3aR,6aR)-5-(L-seryl)-3a-(3-boronopropyl)hexahydropyrrolo[3,4-b]pyrrole-6a(1H)-carboxylic acid]
inhibition at 10 µM (Arginase; [5]): 97.3%

SMILES: O=C([C@@H]1CCCN1)N1C[C@@]2(CCCB(O)O)CCN[C@@]2(C(=O)O)C1 [Example 10, (3aR,6aR)-5-(L-prolyl)-3a-(3-boronopropyl)hexahydropyrrolo[3,4-b]pyrrole-6a(1H)-carboxylic acid]
inhibition at 10 µM (Arginase; [5]): 96.6%

SMILES: O=C(O)[C@]12CNC[C@@]1(CCCB(O)O)CN2 [Example 11, (1S,5R)-1-(3-boronopropyl)-3,6-diazabicyclo[3.2.0]heptane-5-carboxylic acid]
inhibition at 10 µM (Arginase; [4]): 99.5%

SMILES: NC[C@@H]1NC[C@]2(C(=O)O)NCC[C@]12CCCB(O)O [Example 12, (3aR,4R,6aR)-4-(aminomethyl)-3a-(3-boronopropyl)hexahydropyrrolo[3,4-b]pyrrole-6a(1H)-carboxylic acid]
inhibition at 10 µM (Arginase; [5]): 100%

inhibition at 10 µM (Arginase; [4]): 102%
SMILES: CSCC[C@H](N)C(=O)N1C[C@@]2(CCCB(O)O)CCN[C@@]2(C(=O)O)C1 [Example 13]

inhibition at 10 µM (Arginase; [4]): 102%
SMILES: CC(C)(C)[C@H](N)C(=O)N1C[C@@]2(CCCB(O)O)CCN[C@@]2(C(=O)O)C1 [Example 14]

inhibition at 10 µM (Arginase; [4]): 96.7%
SMILES: CC(C)C[C@H](N)C(=O)N1C[C@@]2(CCCB(O)O)CCN[C@@]2(C(=O)O)C1 [Example 15]

inhibition at 10 µM (Arginase; [4]): 97.3%
SMILES: CC(C)(N)C(=O)N1C[C@@]2(CCCB(O)O)CCN[C@@]2(C(=O)O)C1 [Example 16]

inhibition at 10 µM (Arginase; [4]): 97.8%
SMILES: COC[C@H](N)C(=O)N1C[C@@]2(CCCB(O)O)CCN[C@@]2(C(=O)O)C1 [Example 17]

inhibition at 10 µM (Arginase; [4]): 97.9%
SMILES: C[C@H](N)C(=O)N1C[C@@]2(CCCB3O[C@@H]4C[C@@H]5C[C@@H](C5(C)C)[C@]4(C)O3)CCN[C@@]2(C(=O)O)C1 [Example 18, (3aR,6aR)-5-(L-alanyl)-3a-(3-((3aS,4S,6S,7aR)-3a,5,5-trimethylhexahydro-4,6-methanobenzo[d][1,3,2]dioxaborol-2-yl)propyl)hexahydropyrrolo[3,4-b]pyrrole-6a(1H)-carboxylic acid]
